Test results taken from EP0554004A2, “Cephem compounds and antibacterial agents” (KATAYAMA SEIYAKUSYO CO. Ltd., priority 1992, dated 1993).
In brackets after ≈: the same amount, converted by molar mass.

Columns and labels:
[1] = tested on: A. calcoaceticos T59; test: MIC against standard strains (Test Example 3); assay type: cell-based; details: A. calcoaceticos T59 (Test Example 3); read-out: MIC
Procedure: (§1) By using each test strain cultured overnight at 37°C in a Muller-Hinton broth, there was prepared a bacterial solution with a bacterial cell population of 1 x 10^6 CFU/mi of the same bouillon. The bacterial solution was inoculated into the Muller-Hinton agar media each containing respectively one test agent and, after overnight incubation at 37°C, the minimum concentration that inhibited growth of the bacteria was determined and shown as MIC also in Table 1.
(§2) The minimum growth inhibitory concentration was determined for each of the 21 standard strains shown in Table 3, according to the same method as used in Test Example 1.
(§3) In the test, FMOX (flomoxef), CTM (cefotiam) and CEZ (cefazolin) were used as control agents.

[2] = tested on: A. faecalis ATCC3750; test: MIC against standard strains (Test Example 3); assay type: cell-based; details: Alcaligenes faecalis; A. faecalis ATCC3750 (Test Example 3); read-out: MIC
Procedure: as §1, §2, §3

[3] = tested on: B. subtilis ATCC6633; test: MIC against standard strains (Test Example 3); assay type: cell-based; details: Bacillus subtilis; B. subtilis ATCC6633 (Test Example 3); read-out: MIC
Procedure: as §1, §2, §3

[4] = tested on: C. freundii ATCC8090; test: MIC against standard strains (Test Example 3); assay type: cell-based; details: Citrobacter freundii; C. freundii ATCC8090 (Test Example 3); read-out: MIC
Procedure: as §1, §2, §3

[5] = tested on: E. cloacae ATCC13407; test: MIC against standard strains (Test Example 3); assay type: cell-based; details: Enterobacter cloacae; E. cloacae ATCC13407 (Test Example 3); read-out: MIC
Procedure: as §1, §2, §3

[6] = tested on: E. coli CSH2 (RE45); test: MIC against standard strains (Test Example 3); assay type: cell-based; details: Escherichia coli
Procedure: as §1, §2, §3

[7] = tested on: E. coli CSH2 (RK1); test: MIC against standard strains (Test Example 3); assay type: cell-based; details: Escherichia coli
Procedure: as §1, §2, §3

[8] = tested on: E. coli NIHJ JC-2; test: MIC against standard strains (Test Example 3); assay type: cell-based; details: Escherichia coli, NIHJJC2; E. coli NIHJ JC-2 (Test Example 3); read-out: MIC
Procedure: as §1, §2, §3

[9] = tested on: K. pneumoniae IFO3317; test: MIC against standard strains (Test Example 3); assay type: cell-based; details: Klebsiella pneumoniae; K. pneumoniae IFO3317 (Test Example 3); read-out: MIC
Procedure: as §1, §2, §3

[10] = tested on: K. pneumoniae No. 42; test: MIC against standard strains (Test Example 3); assay type: cell-based; details: Klebsiella pneumoniae; K. pneumoniae No. 42 (Test Example 3); read-out: MIC
Procedure: as §1, §2, §3

[11] = tested on: M. Morganii IFO3848; test: MIC against standard strains (Test Example 3); assay type: cell-based; details: Morganella morganii; M. Morganii IFO3848 (Test Example 3); read-out: MIC
Procedure: as §1, §2, §3

[12] = tested on: M. luteus ATCC 9341; test: MIC against standard strains (Test Example 3); assay type: cell-based; details: Micrococcus luteus, ATCC9341; M. luteus ATCC 9341 (Test Example 3); read-out: MIC
Procedure: as §1, §2, §3

[13] = tested on: P. aeruginosa NCTC10490; test: MIC against standard strains (Test Example 3); assay type: cell-based; details: Pseudomonas aeruginosa; P. aeruginosa NCTC10490 (Test Example 3); read-out: MIC
Procedure: as §1, §2, §3

[14] = tested on: P. mirabilis IFO3849; test: MIC against standard strains (Test Example 3); assay type: cell-based; details: Proteus mirabilis; P. mirabilis IFO3849 (Test Example 3); read-out: MIC
Procedure: as §1, §2, §3

[15] = tested on: P. vulugaris OX-19; test: MIC against standard strains (Test Example 3); assay type: cell-based; details: P. vulugaris OX-19 (Test Example 3); read-out: MIC
Procedure: as §1, §2, §3

[16] = tested on: S. aureus 167; test: MIC against standard strains (Test Example 3); assay type: cell-based; details: Staphylococcus aureus; S. aureus 167 (MRSA) (Test Example 3); read-out: MIC
Procedure: as §1, §2, §3

[17] = tested on: S. aureus 195; test: MIC against standard strains (Test Example 3); assay type: cell-based; details: Staphylococcus aureus; S. aureus 195 (MRSA) (Test Example 3); read-out: MIC
Procedure: as §1, §2, §3

[18] = tested on: S. aureus 209p JC-1; test: MIC against standard strains (Test Example 3); assay type: cell-based; details: Staphylococcus aureus; S. aureus 209p JC-1 (Test Example 3); read-out: MIC
Procedure: as §1, §2, §3

[19] = tested on: S. aureus Smith; test: MIC against standard strains (Test Example 3); assay type: cell-based; details: Staphylococcus aureus; S. aureus Smith (Test Example 3); read-out: MIC
Procedure: as §1, §2, §3

[20] = tested on: S. epidemidis IAM1296; test: MIC against standard strains (Test Example 3); assay type: cell-based; details: S. epidemidis IAM1296 (Test Example 3); read-out: MIC
Procedure: as §1, §2, §3

[21] = tested on: S. marcescens IAM1184; test: MIC against standard strains (Test Example 3); assay type: cell-based; details: Serratia marcescens; S. marcescens IAM1184 (Test Example 3); read-out: MIC
Procedure: as §1, §2, §3

[22] = tested on: clinically isolated MRSA; test: Antibacterial potency against clinically isolated MRSA (Test Example 4); assay type: cell-based, methicillin-resistant Staphylococcus aureus; details: Staphylococcus aureus
Procedure: (§4) 52 strains of clinically isolated MRSA were used, and MIC was determined for each of the strains according to the standard method of the Japan Chemotherapical Society as in Test Example 1. The minimum growth inhibitory concentration which inhibited growth of 50% of the strains tested was expressed as MIC50 (µg/ml), and the minimum growth inhibitory concentration which inhibited growth of 90% of the strains was expressed as MIC90 (µg/ml).
MIC 50 and MIC 90 were determined for each of the 52 strains of clinically isolated MRSA according to the same method as used in Test Example 2.
VCM (vancomycin) was used as control agent.

[23] = tested on: clinically isolated MRSA; test: Antibacterial potency against clinically isolated MRSA (Test Example 2); assay type: cell-based, methicillin-resistant Staphylococcus aureus; details: Staphylococcus aureus, 52 strains of clinically isolated MRSA; for MIC50: concentration inhibiting growth of 50% of the strains (Test Example 2); for MIC90: concentration inhibiting growth of 90% of the strains (Test Example 2)
Procedure: A test on the antibacterial potency against clinically isolated MRSA was conducted in the following way.
as §4
In this test, FMOX (flomoxef), IPM/CS (imipenem/cilastatin), CMZ (cefmetazole), MINO (minocycline) and DMPPC (methicillin) were used as control agents.

[24] = 52 strains of clinically isolated MRSA, concentration inhibiting growth of 50% of the strains (Test Example 4), read-out: MIC50
[25] = 52 strains of clinically isolated MRSA, concentration inhibiting growth of 90% of the strains (Test Example 4), read-out: MIC90

| Compound | MIC [1] | MIC [2] | MIC [3] | MIC [4] | MIC [5] | MIC [6] | MIC [7] | MIC [8] | MIC [9] | MIC [10] | MIC [11] | MIC [12] | MIC [13] | MIC [14] | MIC [15] | MIC [16] | MIC [17] | MIC [18] | MIC [19] | MIC [20] | further results |
| --- | --- | --- | --- | --- | --- | --- | --- | --- | --- | --- | --- | --- | --- | --- | --- | --- | --- | --- | --- | --- | --- |
| CNC(=O)c1ccc[n+](CC2=C(C(=O)[O-])N3C(=O)[C@@H](NC(=O)/C(=N\O)c4csc(N)n4)[C@H]3SC2)c1 [Compound (6), 7β-[2-(2-aminothiazol-4-I)-2-syn-hydroxyiminoacetamido]-3-[(3-N-methylcarbamoyl)-1-pyridinio)methyl]-3-cephem-4-carboxylic acid chloride] | 12.5 µg/mL | 3.13 µg/mL | 0.78 µg/mL | 0.39 µg/mL | 1.56 µg/mL | 0.78 µg/mL | 1.56 µg/mL | 0.39 µg/mL | 0.39 µg/mL | 0.78 µg/mL | 0.2 µg/mL | 0.1 µg/mL | 3.13 µg/mL | 0.39 µg/mL | 0.78 µg/mL | 12.5 µg/mL | 3.13 µg/mL | 0.39 µg/mL | 0.78 µg/mL | 0.2 µg/mL | MIC [21]: 0.39 µg/mL; MIC50 [22, 24]: 2.15 µg/mL; MIC90 [22, 25]: 7.18 µg/mL |
| Nc1nc(/C(=N/O)C(=O)N[C@@H]2C(=O)N3C(C(=O)[O-])=C(C[n+]4cccc(-c5csc(N)n5)c4)CS[C@H]23)cs1 [Compound (9), 7β-[2-(2-aminothiazol-4-yl)-2-syn-hydroxyiminoacetamido]-3-[[3-(2-aminothiazol-4-yl)-1-pyridinio]methyl]-3-cephem-4-carboxylic acid chloride] | 12.5 µg/mL | 1.56 µg/mL | 0.2 µg/mL | 0.2 µg/mL | 0.78 µg/mL | 0.39 µg/mL | 0.39 µg/mL | 0.2 µg/mL | 0.2 µg/mL | 0.78 µg/mL | 0.1 µg/mL | 0.05 µg/mL | 3.13 µg/mL | 0.39 µg/mL | 0.2 µg/mL | 3.13 µg/mL | 1.56 µg/mL | 0.2 µg/mL | 0.2 µg/mL | 0.05 µg/mL | MIC [21]: 0.39 µg/mL; MIC50 [22, 24]: 1.48 µg/mL; MIC90 [22, 25]: 2.92 µg/mL |
| CCN(CC)C(=O)c1ccc[n+](CC2=C(C(=O)[O-])N3C(=O)[C@@H](NC(=O)/C(=N\O)c4csc(N)n4)[C@H]3SC2)c1 [Compound (14), 7β-[2-(2-aminothiazol-4-yl)-2-syn-hydroxyiminoacetamido]-3-[(3-N,N-diethylcarbamoyl-I-pyridinio)methyl]-3-cephem-4-carboxylic acid chloride] | 12.5 µg/mL | 3.13 µg/mL | 0.39 µg/mL | 0.78 µg/mL | 3.13 µg/mL | 0.78 µg/mL | 3.13 µg/mL | 0.78 µg/mL | 0.78 µg/mL | 3.13 µg/mL | 0.39 µg/mL | 0.2 µg/mL | 6.25 µg/mL | 1.56 µg/mL | 0.78 µg/mL | 12.5 µg/mL | 6.25 µg/mL | 0.78 µg/mL | 0.78 µg/mL | 0.39 µg/mL | MIC [21]: 0.78 µg/mL; MIC50 [22, 24]: 6.77 µg/mL; MIC90 [22, 25]: 11.8 µg/mL |
| CN[C@H](CC(C)C)C(=O)N[C@H]1C(=O)N[C@@H](CC(N)=O)C(=O)N[C@H]2C(=O)N[C@H]3C(=O)N[C@H](C(=O)N[C@H](C(=O)O)c4cc(O)cc(O)c4-c4cc3ccc4O)[C@H](O)c3ccc(c(Cl)c3)Oc3cc2cc(c3O[C@@H]2O[C@H](CO)[C@@H](O)[C@H](O)[C@H]2O[C@H]2C[C@](C)(N)[C@H](O)[C@H](C)O2)Oc2ccc(cc2Cl)[C@H]1O [VCM, vancomycin, reference compound] |  |  |  |  |  |  |  |  |  |  |  |  |  |  |  |  |  |  |  |  | MIC50 ([22]; MRSA): 0.74 µg/mL (≈ 0.511 µM); MIC90 ([22]; MRSA): 1.38 µg/mL (≈ 0.952 µM) |
| CO[C@@]1(NC(=O)CSCC#N)C(=O)N2C(C(=O)O)=C(CSc3nnnn3C)CS[C@@H]21 [CMZ, cefmetazole, reference compound] |  |  |  |  |  |  |  |  |  |  |  |  |  |  |  |  |  |  |  |  | MIC50 [23]: 16.8 µg/mL (≈ 35.6 µM); MIC90 [23]: 49.8 µg/mL (≈ 106 µM) |
| Cc1nnc(SCC2=C(C(=O)O)N3C(=O)[C@@H](NC(=O)Cn4cnnn4)[C@H]3SC2)s1 [CEZ, cefazolin, reference compound] | > 100 µg/mL | 12.5 µg/mL (≈ 27.6 µM) | 0.2 µg/mL (≈ 0.44 µM) | 3.13 µg/mL (≈ 6.89 µM) | > 100 µg/mL | 1.56 µg/mL (≈ 3.43 µM) | 3.13 µg/mL (≈ 6.89 µM) | 1.56 µg/mL (≈ 3.43 µM) | 0.78 µg/mL (≈ 1.72 µM) | 3.13 µg/mL (≈ 6.89 µM) | 25 µg/mL (≈ 55 µM) | 0.78 µg/mL (≈ 1.72 µM) | > 100 µg/mL | 6.25 µg/mL (≈ 13.8 µM) | 12.5 µg/mL (≈ 27.5 µM) | 100 µg/mL (≈ 220 µM) | 50 µg/mL (≈ 110 µM) | 0.2 µg/mL (≈ 0.44 µM) | 0.2 µg/mL (≈ 0.44 µM) | 0.1 µg/mL (≈ 0.22 µM) | MIC [21]: > 100 µg/mL |
| COc1cccc(OC)c1C(=O)N[C@@H]1C(=O)N2[C@@H]1SC(C)(C)[C@@H]2C(=O)O [DMPPC, methicillin, reference compound] |  |  |  |  |  |  |  |  |  |  |  |  |  |  |  |  |  |  |  |  | MIC50 [23]: 42.5 µg/mL (≈ 112 µM); MIC90 [23]: > 100 µg/mL |
| CN(C)c1ccc(O)c2c1C[C@H]1C[C@H]3[C@H](N(C)C)C(O)=C(C(N)=O)C(=O)[C@@]3(O)C(O)=C1C2=O [MINO, minocycline, reference compound] |  |  |  |  |  |  |  |  |  |  |  |  |  |  |  |  |  |  |  |  | MIC50 [23]: 0.2 µg/mL (≈ 0.437 µM); MIC90 [23]: 1.5 µg/mL (≈ 3.28 µM) |
